ChEMBL document CHEMBL1201862, “PubChem BioAssay data set” (2004)
Activity calls are given as the source filed them.

Legend:
[1] = biological target: Prothrombin (Bos taurus, UniProt P00735); test: thrombin inhibition, dose response, biochemical, fluorescence polarization, uHTS hits (AID 602369); type: functional
[2] = biological target: 26S proteasome non-ATPase regulatory subunit 14 (Homo sapiens, UniProt O00487); test: inhibition of proteasome subunit RPN11 – biochemical, fluorescence polarization, uHTS hits, confirmation (AID 602368); type: functional
[3] = biological target: 72 kDa type IV collagenase (Homo sapiens, UniProt P08253); test: Dose Response validation of uHTS RPN11 inhibitor hits using a MMP-2 Fluorescence assay.; type: functional
[4] = enhancers of respiration in Yfh1-depleted yeast, dose response, Friedreich's ataxia, plus single-dose screen (AID 1465); type: functional;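 further: yeast depleted of Yfh1p frataxin homolog grown on glycerol needing respiration; WST-1 tetrazolium dye reduction as measure of cellular dehydrogenase metabolic activity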
[5] = biological target: Genome polyprotein (dengue virus type 2, UniProt P29990); test: Dengue-2 NS5 methyltransferase inhibitors, primary screen, biochemical, confirmation dose response (AID 588689); type: functional
[6] = test system: Streptococcus sp. 'group A'; test: growth inhibition of control SK(-) GAS strain, dose response, counter-screen for streptokinase expression inhibitor project, luminescence, kanamycin, BacTiterGlo, confirmation (AID 1900); type: functional, organism-based
[7] = NIH-3T3 fibroblast cytotoxicity, dose response, cytotoxicity control, cell-based, fluorescence, Alamar Blue, secondary assay (AID 2327); type: functional;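 further: NIH-3T3 mouse fibroblasts cultured with fluconazole at 8 µg/mL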
[8] = biological target: T1, Serine/threonine-protein phosphatase (Candida dubliniensis (strain CD36 / CBS 7987 / NCPF 3949 / NRRLY-17841) (Yeast), UniProt B9W6M3); test: calcineurin pathway inhibitors in yeast reporter, dose response, S. cerevisiae, CDRE-lacZ, luminescence, secondary (AID 2388); type: functional, cell-based;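 further: yeast reporter cells carrying a calcineurin-responsive lacZ construct stimulated with calcium chloride; luminescent beta-galactosidase reporter signal in whole cells rather than isolated phosphatase activity; potency for inhibition where a drop in reporter signal means calcineurin blockade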
T1 sequence (B9W6M3 whole entry): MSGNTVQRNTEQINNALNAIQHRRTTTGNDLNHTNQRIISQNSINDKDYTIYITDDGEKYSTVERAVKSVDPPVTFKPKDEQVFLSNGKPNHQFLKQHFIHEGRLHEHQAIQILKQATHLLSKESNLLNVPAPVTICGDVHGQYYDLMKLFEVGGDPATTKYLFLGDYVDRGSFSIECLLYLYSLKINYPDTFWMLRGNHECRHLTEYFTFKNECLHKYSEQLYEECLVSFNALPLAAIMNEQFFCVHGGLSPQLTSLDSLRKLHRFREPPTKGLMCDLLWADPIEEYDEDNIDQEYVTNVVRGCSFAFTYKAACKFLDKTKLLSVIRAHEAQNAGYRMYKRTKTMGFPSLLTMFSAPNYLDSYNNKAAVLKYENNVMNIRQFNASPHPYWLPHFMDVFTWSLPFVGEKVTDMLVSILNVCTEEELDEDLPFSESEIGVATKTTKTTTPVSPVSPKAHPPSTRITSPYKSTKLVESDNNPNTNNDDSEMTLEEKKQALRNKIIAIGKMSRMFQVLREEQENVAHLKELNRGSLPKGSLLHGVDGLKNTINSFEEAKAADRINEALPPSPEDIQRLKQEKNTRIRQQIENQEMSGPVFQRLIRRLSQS

[9] = biological target: NS3 (Hepatitis C virus, UniProt A3EZJ3); test: PubChem AID 2173; set-up: species or system Hepacivirus hominis
[10] = biological target: ATP-dependent molecular chaperone HSP82 (Candida albicans (strain WO-1) (Yeast), UniProt C4YTQ8); test: loss of DOC-induced GRE-beta-galactosidase reporter signal, dose response, Hsp90 inhibitor project, S. cerevisiae, luminescence (AID 2400); type: functional, cell-based;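 further: beta-galactosidase luminescence from glucocorticoid response element reporter as proxy for Hsp90 function; inhibitor potency where signal loss means Hsp90 inhibition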
[11] = C. albicans growth with fluconazole, confirmation, fluorescence, retest (AID 2467); type: functional, cell-based
[12] = biological target: Heat shock protein HSP 90-alpha (Homo sapiens, UniProt P07900); type: functional, organism-based
[13] = test system: Vero; test: Vero cell cytotoxicity, cytotoxicity control for flavivirus capping enzyme inhibitors (AID 588742); type: functional; settings: Chlorocebus sabaeus
[14] = test system: Streptococcus; test: Group A Streptococcus viability loss, dose response, counter-screen for streptokinase expression inhibitor project, luminescence, BacTiterGlo (AID 1915); type: functional, organism-based;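 further: potency for reduction of bacterial viability or growth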
[15] = ZM109 Env clade C HIV-1 fusion inhibitors, dose response, HeLa effector, CEM target cells, luciferase, cherry-pick (AID 652058); type: functional, cell-based
[16] = off-target signal loss in HeLa-CEM21 co-culture – HeLa F-luc CTL cells, cherry-picked, counter-screen for HIV-1 Env fusion inhibitor project, dose response (AID 652040); type: functional, cell-based;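 further: potency for signal decrease marking cytotoxic or nonspecific inhibition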
[17] = inhibitors of HIV Env-driven cell fusion, dose response, cherry-pick (AID 652057); type: functional, cell-based
[18] = biological target: Mucolipin-3 (Homo sapiens, UniProt Q8TDD5); test: Dose response cell-based high-throughput screening assay for agonists of the transient receptor potential channel ML3 (TRPML3). [Related pubchem assays: 1526, 1424, 1448 ]; type: functional
[19] = inhibitors of clade B AD8 Env fusion, dose response, cell-based, cherry-pick (AID 652062); type: functional;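 further: luciferase signal from cell-cell fusion driven by HIV-1 clade B AD8 Env; potency is for inhibitors of fusion seen as a drop in luminescence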
[20] = biological target: Ion channel NompC (Danio rerio, UniProt Q7T1G6); test: Fluorescence counterscreen assay for TRPML3 agonists: dose response cell-based high-throughput screening assay to identify agonists of the transient receptor potential channel N1 (TRPN1). [Related pubchem assays: 1526, 1424, 1448 ]; type: functional
[21] = HEp-2 cell cytotoxicity, dose response, cytotoxicity control for RSV inhibitor project, HTS (AID 2410); type: functional; settings: human respiratory syncytial virus
[22] = cells

Chain of Ion channel NompC (Q7T1G6 whole entry): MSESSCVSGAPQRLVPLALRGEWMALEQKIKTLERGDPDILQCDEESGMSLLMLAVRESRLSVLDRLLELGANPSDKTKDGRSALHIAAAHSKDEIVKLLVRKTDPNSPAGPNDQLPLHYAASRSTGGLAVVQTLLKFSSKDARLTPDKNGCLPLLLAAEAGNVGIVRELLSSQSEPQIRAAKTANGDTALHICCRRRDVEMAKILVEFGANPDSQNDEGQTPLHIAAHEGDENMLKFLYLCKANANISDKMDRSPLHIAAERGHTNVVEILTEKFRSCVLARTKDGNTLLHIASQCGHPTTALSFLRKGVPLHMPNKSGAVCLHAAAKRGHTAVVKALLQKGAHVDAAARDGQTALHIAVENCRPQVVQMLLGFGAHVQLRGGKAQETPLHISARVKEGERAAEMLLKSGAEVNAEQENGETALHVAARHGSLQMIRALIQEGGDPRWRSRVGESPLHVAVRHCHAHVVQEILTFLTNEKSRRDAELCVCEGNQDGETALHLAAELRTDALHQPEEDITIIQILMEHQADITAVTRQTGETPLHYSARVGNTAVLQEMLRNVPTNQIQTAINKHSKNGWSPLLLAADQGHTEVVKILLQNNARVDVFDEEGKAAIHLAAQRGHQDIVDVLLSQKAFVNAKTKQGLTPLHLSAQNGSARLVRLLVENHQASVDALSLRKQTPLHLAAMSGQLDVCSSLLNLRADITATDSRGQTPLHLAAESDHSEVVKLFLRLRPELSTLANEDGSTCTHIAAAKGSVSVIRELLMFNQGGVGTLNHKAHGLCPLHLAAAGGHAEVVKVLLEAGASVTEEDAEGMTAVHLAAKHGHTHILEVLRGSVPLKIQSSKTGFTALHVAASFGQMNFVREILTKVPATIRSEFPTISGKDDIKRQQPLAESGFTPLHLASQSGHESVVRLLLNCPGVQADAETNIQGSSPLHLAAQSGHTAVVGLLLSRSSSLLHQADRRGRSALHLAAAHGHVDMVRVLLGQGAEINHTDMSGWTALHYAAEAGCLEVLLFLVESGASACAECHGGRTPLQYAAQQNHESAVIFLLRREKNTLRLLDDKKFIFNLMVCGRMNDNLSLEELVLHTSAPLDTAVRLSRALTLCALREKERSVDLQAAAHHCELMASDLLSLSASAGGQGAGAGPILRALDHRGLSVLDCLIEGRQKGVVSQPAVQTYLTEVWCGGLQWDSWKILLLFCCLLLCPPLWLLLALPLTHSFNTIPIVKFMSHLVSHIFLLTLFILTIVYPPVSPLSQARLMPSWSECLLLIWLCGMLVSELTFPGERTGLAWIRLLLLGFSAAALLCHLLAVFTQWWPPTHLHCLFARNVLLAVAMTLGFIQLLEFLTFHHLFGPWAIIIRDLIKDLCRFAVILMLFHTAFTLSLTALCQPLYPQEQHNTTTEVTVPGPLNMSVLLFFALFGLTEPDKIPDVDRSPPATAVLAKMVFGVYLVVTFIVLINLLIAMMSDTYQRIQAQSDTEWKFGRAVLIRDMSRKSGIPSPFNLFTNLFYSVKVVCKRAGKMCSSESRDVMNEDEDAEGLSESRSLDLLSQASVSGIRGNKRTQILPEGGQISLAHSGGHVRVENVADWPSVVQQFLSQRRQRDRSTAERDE
Chain of Mucolipin-3 (Q8TDD5 whole entry, the tested form may be a part): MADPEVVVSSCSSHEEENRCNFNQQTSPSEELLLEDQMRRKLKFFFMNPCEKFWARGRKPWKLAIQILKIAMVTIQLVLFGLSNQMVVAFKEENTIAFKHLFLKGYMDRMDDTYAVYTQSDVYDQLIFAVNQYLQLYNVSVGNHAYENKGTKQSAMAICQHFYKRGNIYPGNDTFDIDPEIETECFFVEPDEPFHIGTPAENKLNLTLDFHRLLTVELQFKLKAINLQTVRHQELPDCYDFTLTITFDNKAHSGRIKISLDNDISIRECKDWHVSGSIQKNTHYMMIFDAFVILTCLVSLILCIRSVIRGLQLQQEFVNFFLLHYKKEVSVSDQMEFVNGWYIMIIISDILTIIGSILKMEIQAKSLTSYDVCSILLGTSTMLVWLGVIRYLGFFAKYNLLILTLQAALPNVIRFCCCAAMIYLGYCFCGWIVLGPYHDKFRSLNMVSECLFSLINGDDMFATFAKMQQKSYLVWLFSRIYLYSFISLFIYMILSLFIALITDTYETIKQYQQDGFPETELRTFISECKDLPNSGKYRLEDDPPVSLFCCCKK
Chain of Genome polyprotein (P29990 2492-3391 limits assumed): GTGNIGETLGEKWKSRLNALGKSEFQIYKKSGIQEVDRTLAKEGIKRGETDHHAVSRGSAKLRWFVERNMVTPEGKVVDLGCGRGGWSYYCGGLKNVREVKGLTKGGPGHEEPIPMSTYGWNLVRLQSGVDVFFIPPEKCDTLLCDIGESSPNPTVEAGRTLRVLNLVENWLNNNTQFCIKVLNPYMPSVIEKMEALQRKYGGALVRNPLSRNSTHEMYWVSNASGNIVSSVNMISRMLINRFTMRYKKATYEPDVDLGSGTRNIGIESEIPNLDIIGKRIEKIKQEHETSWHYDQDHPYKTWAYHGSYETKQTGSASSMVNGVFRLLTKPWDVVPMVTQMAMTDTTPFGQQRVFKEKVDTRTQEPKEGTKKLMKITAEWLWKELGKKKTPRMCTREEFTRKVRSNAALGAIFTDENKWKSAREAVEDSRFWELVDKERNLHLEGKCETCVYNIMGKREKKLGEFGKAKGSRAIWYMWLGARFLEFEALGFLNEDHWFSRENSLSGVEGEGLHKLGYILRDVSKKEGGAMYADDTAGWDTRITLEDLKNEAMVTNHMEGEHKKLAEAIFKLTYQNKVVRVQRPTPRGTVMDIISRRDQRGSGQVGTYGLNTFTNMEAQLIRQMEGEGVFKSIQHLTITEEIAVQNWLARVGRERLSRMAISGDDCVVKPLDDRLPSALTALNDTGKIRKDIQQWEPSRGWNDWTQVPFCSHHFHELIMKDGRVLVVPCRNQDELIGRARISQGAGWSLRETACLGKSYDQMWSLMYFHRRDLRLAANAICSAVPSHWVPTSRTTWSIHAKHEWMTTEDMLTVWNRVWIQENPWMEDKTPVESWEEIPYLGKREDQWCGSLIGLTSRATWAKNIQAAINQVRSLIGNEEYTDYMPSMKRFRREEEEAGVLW
Chain of 72 kDa type IV collagenase (P08253 whole entry): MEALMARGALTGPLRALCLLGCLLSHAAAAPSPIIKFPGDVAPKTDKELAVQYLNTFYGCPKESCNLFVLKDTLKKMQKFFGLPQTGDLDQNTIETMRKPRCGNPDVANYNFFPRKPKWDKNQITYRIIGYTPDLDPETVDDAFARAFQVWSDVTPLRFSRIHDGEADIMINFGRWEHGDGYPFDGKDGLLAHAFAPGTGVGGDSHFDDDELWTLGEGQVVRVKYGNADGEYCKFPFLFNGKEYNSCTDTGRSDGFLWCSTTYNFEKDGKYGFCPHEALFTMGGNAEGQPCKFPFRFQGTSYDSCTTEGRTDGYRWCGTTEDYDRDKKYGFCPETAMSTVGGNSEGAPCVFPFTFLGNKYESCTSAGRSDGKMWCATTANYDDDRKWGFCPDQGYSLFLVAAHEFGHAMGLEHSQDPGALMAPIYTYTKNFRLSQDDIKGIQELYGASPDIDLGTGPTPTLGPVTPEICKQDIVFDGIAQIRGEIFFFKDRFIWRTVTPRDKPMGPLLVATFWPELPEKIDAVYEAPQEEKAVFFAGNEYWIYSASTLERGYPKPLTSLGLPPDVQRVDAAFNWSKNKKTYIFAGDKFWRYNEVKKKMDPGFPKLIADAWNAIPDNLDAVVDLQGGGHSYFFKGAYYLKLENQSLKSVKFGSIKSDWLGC
Chain of ATP-dependent molecular chaperone HSP82 (C4YTQ8 whole entry): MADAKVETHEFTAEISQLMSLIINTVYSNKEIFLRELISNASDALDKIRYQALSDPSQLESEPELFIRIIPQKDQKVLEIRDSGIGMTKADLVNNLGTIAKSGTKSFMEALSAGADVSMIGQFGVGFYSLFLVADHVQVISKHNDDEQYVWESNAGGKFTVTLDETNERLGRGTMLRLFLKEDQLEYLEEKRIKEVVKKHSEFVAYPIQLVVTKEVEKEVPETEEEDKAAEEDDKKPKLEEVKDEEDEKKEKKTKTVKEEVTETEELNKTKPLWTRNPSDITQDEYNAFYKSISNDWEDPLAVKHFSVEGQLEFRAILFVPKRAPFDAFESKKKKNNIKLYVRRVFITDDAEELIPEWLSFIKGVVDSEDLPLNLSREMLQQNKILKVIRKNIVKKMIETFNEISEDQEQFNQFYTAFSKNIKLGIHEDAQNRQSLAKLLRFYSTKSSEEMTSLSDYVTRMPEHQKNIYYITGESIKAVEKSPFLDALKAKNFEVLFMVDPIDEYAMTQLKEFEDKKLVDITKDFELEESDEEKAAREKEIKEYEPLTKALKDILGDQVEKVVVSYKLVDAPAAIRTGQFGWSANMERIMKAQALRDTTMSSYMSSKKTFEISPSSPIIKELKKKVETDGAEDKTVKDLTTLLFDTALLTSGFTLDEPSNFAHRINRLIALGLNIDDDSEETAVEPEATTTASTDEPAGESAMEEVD
Chain of 26S proteasome non-ATPase regulatory subunit 14 (O00487 whole entry): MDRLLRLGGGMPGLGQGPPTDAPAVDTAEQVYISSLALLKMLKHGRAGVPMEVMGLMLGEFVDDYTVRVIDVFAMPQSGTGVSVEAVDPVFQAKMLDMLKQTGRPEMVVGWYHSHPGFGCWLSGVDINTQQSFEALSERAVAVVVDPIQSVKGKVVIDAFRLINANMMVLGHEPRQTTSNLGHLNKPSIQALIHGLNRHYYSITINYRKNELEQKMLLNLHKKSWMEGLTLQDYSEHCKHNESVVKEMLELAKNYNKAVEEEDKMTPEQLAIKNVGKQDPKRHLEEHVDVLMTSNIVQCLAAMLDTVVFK

**Q.** With `CC(C)NC(=S)N/N=C/c1sc(N2CCCCC2)nc1-c1cccs1` as the compound, how does the IC50 [1] read?
**A.** The IC50 was 20.1 µM (active).

**Q.** And the IC50 [2]?
**A.** Its IC50 is 9.24 µM (active).

**Q.** What about the IC50 [3] of the same compound?
**A.** Its IC50 is 9.6 µM (active).

**Q.** What about the EC50 [4] of the same compound?
**A.** The EC50 was > 100 µM (active).

**Q.** What does the source list for `O=C1C=CC(=NNc2ccccc2)C=CC1=O`?
**A.** IC50 [5]: 91.2 µM (active); EC50 [6]: 2.86 µM (active); EC50 [7]: > 160 µM (inactive); EC50 [8]: 2.47 µM (active); IC50 [9]: 12.6 µM (not active); EC50 [10]: 0.887 µM (active); EC50 [11]: 0.237 µM (active); AC50 [12]: 2.02 µM (active); CC50 [13]: 23 µM (active); EC50 [14]: 9.57 µM (active)

**Q.** Which results are given for `Cc1cc(C)c(S(=O)(=O)N2CCCCC2)cc1N(C)S(=O)(=O)c1ccc(Cl)cc1`?
**A.** AC50 [15]: 7.77 µM (active); AC50 [16]: 11.2 µM (active); AC50 [17]: 5.6 µM (active); EC50 [18]: 1.37 µM (active); AC50 [19]: 8.27 µM (active); EC50 [20]: > 29.9 µM (not active)

**Q.** Which CC50 [21] does the source give for `Nc1ccc(Cc2nc3cc4ccccc4cc3[nH]2)cc1` here?
**A.** The CC50 was > 50 µM (active).

**Q.** What about the IC50 [22] of the same compound?
**A.** The IC50 was 15.1 µM (active).
